The values that follow come from patent US20250206751A1, “HETEROCYCLIC COMPOUND FOR INDUCING DEGRADATION OF G12D MUTANT KRAS PROTEIN” (Astellas Pharma Inc., priority 2022, published 2025).

Test [1] has as its system human G12D mutant KRAS-positive pancreatic cancer line AsPC-1. Briefly: Non-anchorage-dependent cell growth inhibition, spheroid 3D cell culture (Test Example 3). Type of test: cell-based. To be noted: AsPC-1 spheroid 3D culture, 6 days, CellTiter Glo 2.0. In a few lines:
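AsPC-1 spheroids, 5×10^2 cells per well on low-adhesion round-bottom plates in RPMI 1640/10% FBS, dosed next day at 10 or 6 points spanning 10 μM to 0.3 nM final for 6 days at 37° C., 5% CO2. Viability by CellTiter Glo 2.0 luminescence; IC50 by Sigmoid-Emax regression, DMSO 100% and cell-free medium 0%.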
A general note: ATP-based viability assays read luminescence as a measure of living cells.

Test [2] relates to human KRAS G12D mutant-positive PK-59 pancreatic cancer cell line-derived xenograft. Briefly: Anti-tumor activity in PK-59 xenograft mice (Test Example 4). The class given is in vivo. To be noted: 10 mg/kg into tail vein, once a week, twice in total; PK-59 xenograft nude mice. How it is done:
Test Example 4: Evaluation of Anti-Tumor Activity in Human KRAS G12D Mutant -Positive PK-59 Pancreatic Cancer Cell Line-Derived Xenograft Mice
PK-59 cells (RIKEN BRC, RCB1901) were cultured using a RPMI 1640 medium containing 10% fetal bovine serum in the presence of 5% CO2 at 37° C. The PK-59 cells were collected and suspended in PBS, and after adding an equal amount of Matrigel (from Becton, Dickinson and Company), 4-5-week-old male nude mice (CAnN.Cg-Foxn1^nu/CrlCrlj (nu/nu), from Charles River Laboratories Japan) were subcutaneously inoculated with the cell suspension of 1.0-2.0×10^7 cells/mL in a volume of 100 μL per mouse. About two weeks after the inoculation, the mice were divided into groups so that all the groups had approximately the same tumor volume and body weight, and administration of test compounds was started on the next day. The study was conducted for 5 mice each of a vehicle group and test compound administration groups. The compounds were dissolved in a solvent containing ethanol (from FUJIFILM Wako Pure Chemical Corporation), a 5% glucose solution (from Otsuka Pharmaceutical), 1M hydrochloric acid (from Kanto Chemical Co., Inc.), 50% (2-hydroxypropyl)-β-cyclodextrin (HP-βCD) solution (from ROQUETTE), HCO-40 (from Nikko Chemicals Co., Ltd.) and 1M sodium hydroxide solution (from Kanto Chemical Co., Inc.) at a liquid amount ratio of 4:84.4:1.1:1:9:0.5. The test compounds dissolved in the respective solvent for the test compound administration groups and the solvent for the vehicle group were administered into tail vein. The administration was performed once a week and twice in total. The tumor sizes and the body weights were measured twice a week. The tumor volumes were calculated using the following equation.
[Tumor volume (mm^3)]=[Long diameter of the tumor (mm)]×[Short diameter of the tumor (mm)]^2×0.5
The tumor growth inhibition rate (%) by the test compounds were calculated with the tumor volumes of the test compound administration groups on the previous day of the start of the administration taken as 100% inhibition and the tumor volumes of the vehicle groups two weeks after the initial administration taken as 0% inhibition. In addition, when the tumor volume of a test compound administration group was smaller than the tumor volume on the previous day of the start of the administration, the tumor regression rate (%) by the test compound was calculated with the tumor volume on the previous day of the start of the administration taken as 0% regression and with the tumor volume 0 taken as 100% regression.

By IC50 is commonly meant the midpoint of a concentration-inhibition curve.

Molecule `Cc1ncsc1-c1ccc([C@H](CO)NC(=O)[C@@H]2C[C@@H](O)CN2C(=O)[C@H](C(C)C)n2cc(-c3ccc(COc4c(-c5c(C)c(F)cc6[nH]ncc56)c(C5CC5)cc5c(N(C)[C@H]6CCNC6)nc(OC[C@H]6CCCO6)nc45)cc3)nn2)cc1` (atropisomer, axis not shown; (M)) [Example 9, (4R)-1-[(2S)-2-{4-[4-({[(7M) 6-cyclopropyl-7-(6-fluoro-5-methyl-1H-indazol-4-yl)-4-{methyl[(3S)-pyrrolidin-3-yl]amino}-2-{[(2R)-oxolan-2-yl]methoxy}quinazolin-8-yl}oxy}methyl)phenyl]-1H-1,2,3-triazol-1-yl}-3-methylbutanoyl]-4-hydroxy-N-{(1R)-2-hydroxy-1-[4-(4-methyl-1,3-thiazol-5-yl)phenyl]ethyl}-L-prolinamide] yielded a half-maximal inhibitory concentration (IC50) in test [1] (Homo sapiens, ASPC1, 144 h) of 9 nM. The “Anti-Tumor Activity Two Weeks After Initial Administration: tumor growth inhibition rate” value in test [2] amounted to 81% inhibition.

In turn, `CO[C@@H](C)COc1cc(N(C)[C@H]2CCNC2)c2cc(C3CC3)c(-c3c(C)c(F)cc4[nH]ncc34)c(OCc3ccc(-c4cn([C@H](C(=O)N5C[C@H](O)C[C@H]5C(=O)N[C@@H](CO)c5ccc(-c6scnc6C)cc5)C(C)C)nn4)cc3)c2n1` (atropisomer, axis not shown; (M)) [Example 11, (4R)-1-[(2S)-2-{4-[4-({[(7M)-6-cyclopropyl-7-(6-fluoro-5-methyl-1H-indazol-4-yl)-2-[(2S)-2-methoxypropoxy]-4-{methyl[(3S)-pyrrolidin-3-yl]amino}quinazolin-8-yl]oxy}methyl)phenyl]-1H-1,2,3-triazol-1-yl}-3-methylbutanoyl]-4-hydroxy-N-{(1R)-2-hydroxy-1-[4-(4-methyl-1,3-thiazol-5-yl)phenyl]ethyl}-L-prolinamide] returned a half-inhibitory concentration (IC50) in test [1] of 19 nM. The “Anti-Tumor Activity Two Weeks After Initial Administration: tumor regression rate” value in test [2] is reported as 6% regression.

`CCn1nccc1-c1ccc([C@H](CO)NC(=O)[C@@H]2C[C@@H](O)CN2C(=O)[C@H](C(C)C)n2cc(-c3ccc(COc4c(-c5c(C)c(F)cc6[nH]ncc56)c(C5CC5)cc5c(N(C)[C@H]6CCNC6)nc(OC[C@H](C)OC)nc45)cc3)nn2)cc1` (atropisomer, axis not shown; (M)) [Example 13]: the half-inhibitory concentration (IC50) in test [1] (Homo sapiens, ASPC1, 144 h) amounted to 10 nM. Moreover, the “Anti-Tumor Activity Two Weeks After Initial Administration: tumor regression rate” value in test [2] was found to be 26% regression.

For the molecule `CCN(c1nc(OC[C@H](C)OC)nc2c(OCc3ccc(-c4cn([C@H](C(=O)N5C[C@H](O)C[C@H]5C(=O)N[C@@H](CO)c5ccc(-c6scnc6C)cc5)C(C)C)nn4)cc3)c(-c3c(C)c(F)cc4[nH]ncc34)c(C3CC3)cc12)[C@H]1CCNC1` (atropisomer, axis not shown; (M)) [Example 50, (4R)-1-[(2S)-2-(4-{4-[({(7M)-6-cyclopropyl-4-{ethyl[(3S)-pyrrolidin-3-yl]amino}-7-(6-fluoro-5-methyl-1H-indazol-4-yl)-2-[(2S)-2-methoxypropoxy]quinazolin-8-yl}oxy)methyl)phenyl}-1H-1,2,3-triazol-1-yl)-3-methylbutanoyl]-4-hydroxy-N-{(1R)-2-hydroxy-1-[4-(4-methyl-1,3-thiazol-5-yl)phenyl]ethyl}-L-prolinamide], in test [1] (Homo sapiens, ASPC1, 144 h), the IC50 was 8 nM. For the same molecule, in test [2], the “Anti-Tumor Activity Two Weeks After Initial Administration: tumor regression rate” value is reported as 20% regression.

In test [1] (Homo sapiens, ASPC1, 144 h), `CO[C@@H](C)COc1nc(N(C)[C@@H]2CCNC2)c2cc(C3CC3)c(-c3c(C)c(F)cc4[nH]ncc34)c(OCc3ccc(-c4cn([C@H](C(=O)N5C[C@H](O)C[C@H]5C(=O)N[C@@H](CO)c5ccc(-c6scnc6C)cc5)C(C)C)nn4)cc3)c2n1` (atropisomer, axis not shown; (M)) [Example 53] gave an IC50 of 10 nM. In addition, the “Anti-Tumor Activity Two Weeks After Initial Administration: tumor regression rate” value in test [2] is recorded as 53% regression.
